Experiment [1] has as its system Pfu fusion DNA polymerase. Nature of the experiment: SYBR Green QPCR with Pfu fusion DNA polymerase. The format is biochemical, Pyrococcus furiosus. The procedure:
QPCR reactions contained DNA or cDNA template, varying amounts of primer (see Table 3 below), 300 uM each dNTP, 4 ng/ul exo Pfu fusion, 6 ng/ul hot start IgG, 0.4ng/ul single-stranded DNA-binding protein, 1× Pfu fusion DF-buffer II (pH 9), 4% DMSO, and 8% glycerol. QPCR reactions were supplemented with 0.1% Triton X100 or zwitterionic detergent, and with 0.5× SYBR Green (Molecular Probes S-7567). Reactions were cycled on the MX3000P Real-Time PCR System using the following conditions: (1 cycle) 95° C. 5 min; (40 cycles) 95° C. 10 sec, 60° C. 30 sec.

In experiment [2] the test system is Pfu fusion DNA polymerase. Nature of the experiment: Accelerated stability study of Pfu fusion DNA polymerase in storage buffer, residual activity by 0.9 kb PCR. The format is biochemical, Pyrococcus furiosus. As to conditions: detergent in storage buffer. Here is the method:
Accelerated stability studies were performed to illustrate the stabilizing effects of zwitterionic detergents. Pfu fusion DNA polymerase was purified in the absence of detergents and then diluted to 28 ng/ul in storage buffer lacking detergent or storage buffers containing either conventional non-ionic detergent (0.1% Igepal/0.1% Triton X100) or various zwitterionic detergents. Protein samples were stored at −20° C. or were heated at 95° C. for varying lengths of time. Residual activity was assayed by amplifying a 0.9 kb genomic target in PCR in fusion DF-buffer supplemented with either 0.1% Triton X100 or 0.1% CHAPSO/0.1% Anzergent 3-12.

The test system of experiment [3] is Pfu fusion DNA polymerase. The experiment is described as follows: Endpoint PCR with Pfu fusion DNA polymerase, detergent/surfactant added to detergent-free PCR buffer. It is filed as biochemical, Pyrococcus furiosus.
For experiment [4], the system named is Pfu and Pfu fusion DNA polymerase. The experiment is described as follows: Endpoint PCR, enhancing detergents and detergent combinations (Table 2). It is filed as biochemical, Pyrococcus furiosus.
The target of a further experiment is T1, Pfu DNA polymerase (Pyrococcus furiosus, UniProt P61875).
T1 sequence (P61875 1-775): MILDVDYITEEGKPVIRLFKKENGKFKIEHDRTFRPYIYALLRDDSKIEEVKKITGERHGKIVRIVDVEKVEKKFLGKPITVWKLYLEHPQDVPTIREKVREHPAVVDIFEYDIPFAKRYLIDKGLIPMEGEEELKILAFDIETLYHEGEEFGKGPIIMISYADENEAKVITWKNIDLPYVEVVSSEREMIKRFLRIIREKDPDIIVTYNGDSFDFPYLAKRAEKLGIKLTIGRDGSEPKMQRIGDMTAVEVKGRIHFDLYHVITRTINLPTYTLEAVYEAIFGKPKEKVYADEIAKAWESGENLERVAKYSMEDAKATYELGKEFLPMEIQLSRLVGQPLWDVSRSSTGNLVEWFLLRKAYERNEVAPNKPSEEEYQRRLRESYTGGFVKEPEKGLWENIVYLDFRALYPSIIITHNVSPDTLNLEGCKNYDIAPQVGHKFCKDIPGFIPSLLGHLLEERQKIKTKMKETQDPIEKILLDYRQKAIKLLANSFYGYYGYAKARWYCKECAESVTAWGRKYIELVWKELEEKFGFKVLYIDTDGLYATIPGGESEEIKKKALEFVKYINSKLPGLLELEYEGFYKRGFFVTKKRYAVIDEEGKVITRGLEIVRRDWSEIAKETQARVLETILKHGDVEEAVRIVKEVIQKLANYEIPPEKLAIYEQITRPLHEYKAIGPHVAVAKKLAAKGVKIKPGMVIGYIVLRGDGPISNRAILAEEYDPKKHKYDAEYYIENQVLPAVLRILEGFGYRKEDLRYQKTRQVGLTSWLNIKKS
Nature of the experiment: Endpoint PCR with Pfu DNA polymerase, detergent/surfactant added to detergent-free PCR buffer. The format is biochemical. Here is the method: Pfu (exo+ and exo−) fusion DNA polymerase (e.g., as described in U.S. patent application Ser. No.: 11/488,535, filed Jul. 17, 2006, and herein incorporated by reference in its entirety), cPfu DNA polymerase (Stratagene catalog #600154), and PEF were purified using standard production protocols (no detergent present), except that non-ionic detergents were omitted from the final storage buffers. Enzymes were stored at −20° C. in 50 mM Tris-HCl (pH 8.2), 0.1 mM EDTA, 1 mM DTT, and 50% glycerol. DNA polymerase storage buffers were additionally supplemented with one or more zwitterionic detergents, in percentages (v/v) ranging from 0.05% to 0.5%.
PCR reaction buffers were prepared without non-ionic detergents (“DF buffer”, detergent-free buffer). For example, 1× cPfu DF-buffer contains 10 mM KCl, 10 mM (NH4)2SO4, 20 mM Tris HCl (pH 8.8), 2 mM MgSO4, and 100 ug/ml BSA. Detergent-free versions of Pfu fusion buffers were also prepared, and consisted of: 40 mM Tris-SO4 (pH 10), 15 mM K2SO4, 8 mM (NH4)2SO4, 2 mM MgSO4 (1× Pfu fusion DF-buffer I) or 30 mM Tris-SO4 (pH 10), 40 mM K2SO4, 1.5 mM (NH4)2SO4, 2 mM MgSO4 (1× Pfu fusion DF-buffer II).
PCR reaction buffers were supplemented with 0.1% Triton X100 (non-ionic detergent) or with one or more zwitterionic detergents or non-detergent surfactants. For example, zwitterionic detergents CHAPS, CHAPSO, 3-10, and 3-12 were obtained from AnaTrace, Inc. (Maumee, Ohio) and added to DF-buffers in percentages (v/v) ranging from 0.05% to 0.5%. The non-detergent surfactant, Surfynol 465, was purchased from Air Products and used in a similar fashion.
For the 0.9 kb and 6 kb systems, PCR reactions (50 ul) were conducted with 40 ng cPfu DNA polymerase in IX cPfu DF-buffer or with 28 ng or 224 ng Pfu fusion DNA polymerase in 1× Pfu fusion DF-buffer I or DF-buffer II, respectively. PCR reactions also contained 2 U/50 ul Pyrococcus furiosus dUTPase (PEF), 100 ng of human genomic DNA, 250 uM each dNTP, and 100 ng of each primer. For the 9 kb system, PCR reactions (50 ul) consisted of 80 ng Pfu, 1.5× cPfu DF-buffer, 2U Pyrococcus furiosus dUTPase (PEF), 200 ng of human genomic DNA, 500 uM each dNTP, and 200 ng of each primer. PCR reaction buffers were supplemented with 0.1% Triton X100 or with zwitterionic detergent(s).

For the next experiment, the target named is Taq DNA polymerase (Thermus aquaticus, UniProt P19821). Conditions: disclosed in U.S. Pat. No. 6,127,155; cited from earlier work.
Taq DNA polymerase, sequence (P19821 whole entry): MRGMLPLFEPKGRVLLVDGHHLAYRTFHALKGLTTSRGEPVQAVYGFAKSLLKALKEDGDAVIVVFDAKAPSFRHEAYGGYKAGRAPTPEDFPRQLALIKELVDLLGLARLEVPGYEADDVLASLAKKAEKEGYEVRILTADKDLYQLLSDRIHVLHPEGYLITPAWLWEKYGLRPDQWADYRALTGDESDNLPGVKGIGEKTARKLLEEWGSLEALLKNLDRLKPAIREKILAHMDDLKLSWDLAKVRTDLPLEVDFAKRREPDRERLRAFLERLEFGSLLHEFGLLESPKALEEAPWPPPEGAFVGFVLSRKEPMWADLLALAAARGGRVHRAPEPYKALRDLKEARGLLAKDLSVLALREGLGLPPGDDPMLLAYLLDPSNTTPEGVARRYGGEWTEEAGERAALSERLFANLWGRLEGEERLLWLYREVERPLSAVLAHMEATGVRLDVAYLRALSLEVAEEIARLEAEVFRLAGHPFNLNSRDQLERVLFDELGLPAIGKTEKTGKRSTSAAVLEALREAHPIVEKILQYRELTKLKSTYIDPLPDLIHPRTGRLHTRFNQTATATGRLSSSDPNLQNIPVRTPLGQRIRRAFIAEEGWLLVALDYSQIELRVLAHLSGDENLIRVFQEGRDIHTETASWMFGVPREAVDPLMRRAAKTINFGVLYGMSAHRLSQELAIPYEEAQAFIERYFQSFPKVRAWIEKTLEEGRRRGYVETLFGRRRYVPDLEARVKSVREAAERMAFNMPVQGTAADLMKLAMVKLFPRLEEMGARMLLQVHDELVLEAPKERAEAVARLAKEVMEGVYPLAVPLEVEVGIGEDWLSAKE
Setting [5] is: 0.05% of the individual detergent.

As for `C[C@H](CCC(=O)NCCC[N+](C)(C)CC(O)CS(=O)(=O)[O-])[C@H]1CC[C@H]2[C@@H]3[C@H](O)C[C@@H]4C[C@H](O)CC[C@]4(C)[C@H]3C[C@H](O)[C@]12C` (stereo partly shown) [CHAPSO], the “QPCR amplification efficiency, total fluorescence and Ct values versus 0.1% Triton X100 (FIG. 7)” value in experiment [1] (0.5% detergent) is “comparable”. Also, in experiment [1] (0.5% detergent, aldolase and GDH gene targets), the “amplification efficiency, total fluorescence and Ct values (FIG. 8)” value is given as “favorable”. Further, in experiment [1] (detergent alone), the “Effective range, Detergent 1 (single detergent), SYBR Green QPCR” value is reported as “CHAPSO (0.1-0.75%)” and the “Optimal range, Detergent 1 (single detergent), SYBR Green QPCR” value is given as “CHAPSO (0.2-0.5%)”. Besides, the “effect on stability of Pfu fusion DNA polymerase (FIG. 6)” value in experiment [2] is given as “enhance the stability”. For the same compound, in experiment [3] (setting [5]), the “PCR amplification with detergent alone (FIG. 2)” value was “little amplification” and the “PCR product with detergent alone (FIG. 3)” value is listed as “did not show observable levels of PCR product”. Also, the “detergent concentration at which amplifications generated product yields (FIG. 1)” value in experiment [3] (individual detergent in fusion PCR buffer, genomic DNA targets, no product in absence of detergent) is recorded as 0.15-0.3%. The “Effective range, concentration of each detergent in combination” value in experiment [4] (combination CHAPS (0.05-0.5%) + CHAPSO (0.05-0.3%)) was “CHAPSO (0.05-0.3%)”. Moreover, in experiment [4] (combination CHAPSO (0.1%) + Anz. 3-10 (0.05-0.4%)), the “Optimal range, concentration of each detergent in combination” value is “CHAPSO (0.1%)”. Besides, in experiment [4] (combination CHAPSO (0.1%) + Anz. 3-10 (0.05-0.5%)), the “Effective range, concentration of each detergent in combination” value is “CHAPSO (0.1%)”. In experiment [4] (endpoint PCR, detergent alone), the “Effective range, Detergent 1 (single detergent)” value is on record as “CHAPSO (0.1-0.8%)” and the “Optimal range, Detergent 1 (single detergent)” value was “CHAPSO (0.15-0.35%)”. For the same compound, at Pfu DNA polymerase (CHAPSO 0.05-0.2%, Anzergent 3-12 0.1-0.2%, in PCR buffer), the “effectiveness relative to CHAPS and Anzergent 3-10 (FIG. 5)” value is given as “somewhat more effective”. For the same compound, the “product yields on addition of zwitterionic detergent to PCR buffer (FIG. 5)” value on Pfu DNA polymerase (versus buffer lacking detergent, which failed to generate product) is reported as “dramatically improved”.

As to NP-40, the “effect on Taq DNA polymerase” value on Taq DNA polymerase was “stabilize”.

The values are drawn from patent publication US20080064071A1, “Zwitterionic detergents for the storage and use of DNA polymerases” (priority 2006, published 2008).
